The test system of one test is Daudi cells. As to the kind of experiment: Antibody dependent cellular cytotoxicity (ADCC), labeled Daudi cells co-cultured with PBMC. The format is cell-based. The note with it: Daudi labeled with 1 μM Labeling Probe; PBMC E:T 20:1; 5 hours at 37° C. How it is done: As shown in FIGS. 3A-3C, experiments were conducted to test antibody dependent cellular cytotoxicity (ADCC) in Daudi (FIGS. 3A-3B) and SKBR3 (FIG. 3C) cells labeled with the bifunctional probes of the present disclosure. Daudi and SKBR3 cells were labeled with 1 μM and 10 μM Labeling Probe respectively and co-cultured with peripheral blood mononuclear cells (PBMC; Cellular Technologies Limited) at an E:T ratio of 20:1 (100,000 effector to 5,000 target) with indicated antibody titrations for 5 hours at 37° C. prior to Nano-Glo® Luciferase Assay Substrate addition. […] Curves in FIGS. 3B and 3C were generated following assay background subtraction (RLU [Target cells+Effector cells+Detection Components]−RLU [Media+Detection Components]) using a four parametric variable slope algorithm in Prism.

The next test relates to Raji target cells. As to the kind of experiment: Bispecific T-cell engager (BiTE) target cell lysis, labeled Raji target cells with TALL-104 effector cells. The test is classed as cell-based. The note with it: Raji (1.67 μM Labeling probe); TALL-104 effector 2.5:1; 6 hours at 37° C. As to the method:
BiTEs are a class of artificial bispecific monoclonal antibodies that are investigated for the use as anti-cancer drugs as they are used to direct the T cells' cytotoxic activity to target cells (e.g., cancer cells). As shown, Raji target cells (1.67 μM Labeling probe) and TALL-104 effector cells were co-cultured at 2.5:1 ratio (12,500 effector to 5,000 target) in a 96-well assay plate. Bincyto was titrated at indicated concentrations and assay plate was incubated for 6 hours at 37° C. prior to Nano-Glo® Luciferase Assay Substrate addition. Curves were generated following assay background subtraction as described in above. […] S/B=BiTE/no BiTE. % antibody dependent target cell lysis=100×(RLU [target+ effector+antibody]−RLU [target+ effector])/(RLU [target+ effector+digitonin]−RLU [target+ effector]).

The EC50 is the midpoint of the concentration-response curve. A high value points to weaker potency. “Rituximab: antibody titrated in ADCC assay on Daudi cells” displayed a concentration giving a half-maximal response (EC50) in the test with Daudi cells of 6.8 ng/mL.

Turning to “Bincyto: bispecific T-cell engager (BiTE) titrated on Raji target cells with TALL-104 effector cells”, the half-maximal effective concentration (EC50) with Raji target cells turned out to be 5.38 µM.

The record behind these values is patent publication US12061202B2, “Compositions and methods for bioluminescent detection using multifunctional probes” (Promega Corporation, priority 2019, dated 2024).
